In patent publication US9321756B2, “Azole compounds as PIM inhibitors” (priority 2011, dated 2016):
Where two headings read alike, the source gives them in different places.

Experiments:
[1] = tested on: Pim-1 stably transfected U2OS human osteogenic sarcoma line; assay: Pim cell assay U2OS (phospho-BAD normalized against total BAD), Pim-1 transfected; format: cell-based; conditions: Homo sapiens, U2OS
[2] = tested on: Pim-2 stably transfected U2OS human osteogenic sarcoma line; assay: Pim cell assay U2OS (phospho-BAD normalized against total BAD), Pim-2 transfected; format: cell-based; conditions: Homo sapiens, read-out: U2OS Pim2_Cell_IC50
[3] = target: full length recombinant Pim-2 (Homo sapiens (Human), UniProt Q9P1W9); assay: Pim enzyme assay (HTRF, phosphorylation of biotinylated-BAD (S112) peptide), Pim-2; format: biochemical; conditions: read-out: Pim2_IC50
full length recombinant Pim-2, sequence (Q9P1W9 whole entry): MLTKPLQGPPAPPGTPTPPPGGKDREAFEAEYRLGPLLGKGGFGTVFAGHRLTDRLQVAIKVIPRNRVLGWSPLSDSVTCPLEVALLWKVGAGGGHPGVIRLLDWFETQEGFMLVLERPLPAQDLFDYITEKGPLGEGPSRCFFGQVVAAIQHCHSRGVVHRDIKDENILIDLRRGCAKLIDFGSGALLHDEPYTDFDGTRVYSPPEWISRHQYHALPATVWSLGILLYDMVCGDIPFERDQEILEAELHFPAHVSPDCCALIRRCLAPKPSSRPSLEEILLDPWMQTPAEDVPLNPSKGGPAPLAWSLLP

[4] = target: full length recombinant Pim-1 (Homo sapiens (Human), UniProt P11309); assay: Pim enzyme assay (HTRF, phosphorylation of biotinylated-BAD (S112) peptide), Pim-1; format: biochemical
full length recombinant Pim-1, sequence (P11309 whole entry): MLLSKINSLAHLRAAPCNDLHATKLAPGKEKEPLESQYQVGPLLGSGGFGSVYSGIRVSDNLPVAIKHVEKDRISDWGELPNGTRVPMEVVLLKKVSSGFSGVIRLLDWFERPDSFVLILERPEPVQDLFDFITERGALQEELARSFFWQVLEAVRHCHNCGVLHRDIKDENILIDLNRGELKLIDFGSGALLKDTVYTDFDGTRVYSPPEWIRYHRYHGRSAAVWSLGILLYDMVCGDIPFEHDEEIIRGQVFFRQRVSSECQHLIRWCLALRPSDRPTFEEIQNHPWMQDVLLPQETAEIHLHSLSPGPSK

[5] = target: full length recombinant Pim-3 (Homo sapiens (Human), UniProt Q86V86); assay: Pim enzyme assay (HTRF, phosphorylation of biotinylated-BAD (S112) peptide), Pim-3; format: biochemical; conditions: Pim-3 enzyme assay; read-out: Pim3 IC50
Method in brief: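 Full-length recombinant Pim-3 phosphorylated biotinylated BAD (S112) peptide in 60 mM Hepes pH 7.0, 0.05% BSA, 2 mM DTT for 1 h 30 min at 22 °C. After EDTA stop, HTRF was read with Eu anti-phospho-BAD and streptavidin-APC. IC50 came from 4-parameter logistic fit of percent-of-control values.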

KMS-12-BM myeloma cells = assay: Pim cell assay KMS12 (phospho-BAD and total BAD); format: cell-based; conditions: Homo sapiens, 2 h
Protocol: The assay for determination of the antiproliferative activity of multiple Pim inhibitors in the KMS-12-BM myeloma cells measures levels of phospho-BAD and total BAD. It was conducted as follows: […] The cells were then incubated overnight at 37° C., 5% CO2. […] This dilution in DMSO was then diluted again into cell growth medium. […] The cell plates were then incubated with compound for 2 hours at 37° C., 5% CO2. After a two h incubation, the compound-containing medium was removed. […] The cell plates containing lysis buffer were then immediately stored at -70° C. These prepared lysates were then assayed for phospho and total BAD according to the manufacturer's protocols (Meso Scale Diagnostics, Cat#[…]-3 & #[…]-3). The plates were read on the MSD Sector Imager 6000, and results were calculated according to the assay protocols ((% Phosphoprotein=((2×Phospho signal)/(Phospho signal+Total signal))×100)).

[6] = read-out: U2OS Pim1_Cell_IC50, U2OS cells, Pim-1 transfected
[7] = Pim-1 enzyme assay, read-out: Pim_1_IC50
[8] = HTRF, 10-point curve, high dose 1 uM, 45 min at RT
[9] = HTRF, 10-point curve, high dose 1 uM, 2 h at RT, read-out: Pim_1_IC50

SMILES | IC50 ([3]; Pim-2 enzyme assay) [nM] | IC50 [4, 7] [nM] | IC50 [5] [nM] | IC50 (KMS-12-BM myeloma cells; read-out: KMS12_IC50) [µM] | IC50 [3, 8] [nM] | IC50 [4, 9] [nM] | IC50 ([2]; U2OS cells, Pim-2 transfected) [nM] | IC50 ([1]; read-out: U2OS Pim1_Cell_IC50) [nM] | also measured
CS(=O)(=O)c1nnc(-c2ccc3[nH]cc(-c4cccc(N5CCOCC5)n4)c3c2)s1 [Example 215, 5-(5-(methylsulfonyl)-1,3,4-thiadiazol-2-yl)-3-(6-(4-morpholinyl)-2-pyridinyl)-1H-indole] | 8780 | 208 | 168 | – | – | – | > 31600 | > 31600 | –
CNc1nnc(-c2ccc3[nH]cc(-c4ccc5c(c4)OC(C)(C)C5)c3c2)s1 [Example 216, 5-(3-(2,2-dimethyl-2,3-dihydro-1-benzofuran-6-yl)-1H-indol-5-yl)-N-methyl-1,3,4-thiadiazol-2-amine] | 1840 | 187 | 91.5 | – | – | – | > 31600 | 1770 | –
CNc1nnc(-c2ccc3[nH]cc(-c4cncc(N5CCCCC5)n4)c3c2)s1 [Example 227, N-methyl-5-(3-(6-(1-piperidinyl)-2-pyrazinyl)-1H-indol-5-yl)-1,3,4-thiadiazol-2-amine] | 41 | 5.07 | 1.42 | – | – | – | 9950 | 121 | –
CNc1nnc(-c2ccc3[nH]cc(-c4cccc(-n5cnc(C)c5)n4)c3c2)s1 [Example 228, N-methyl-5-(3-(6-(4-methyl-1H-imidazol-1-yl)-2-pyridinyl)-1H-indol-5-yl)-1,3,4-thiadiazol-2-amine] | 8.28 | 13.2 | 1.5 | – | – | – | > 31600 | > 31600 | –
CC(C)Oc1cccc(-c2c[nH]c3ccc(-c4nnco4)cc23)n1 [Example 244, 3-(6-(1-methylethoxy)-2-pyridinyl)-5-(1,3,4-oxadiazol-2-yl)-1H-indole] | 85.4 | 24.8 | 15.1 | – | – | – | 12200 | 310 | –
c1ccc(-c2nnc(-c3ccc4[nH]cc(-c5cncc(C6CC6)n5)c4c3)o2)cc1 [Example 254, 3-(6-cyclopropyl-2-pyrazinyl)-5-(5-phenyl-1,3,4-oxadiazol-2-yl)-1H-indole] | > 1000 | 175 | 138 | – | – | – | 808 | > 15800 | –
CC(C)Nc1nnc(-c2ccc3[nH]cc(-c4nccc(C5CC5)n4)c3c2)o1 [Example 264, 5-(3-(4-cyclopropyl-2-pyrimidinyl)-1H-indol-5-yl)-N-(1-methylethyl)-1,3,4-oxadiazol-2-amine] | 1.39 | 1.4 | 0.435 | – | – | – | 238 | 25.8 | –
CC(C)Nc1nnc(-c2cc3c(-c4nccc(C5CC5)n4)c[nH]c3cc2F)o1 [Example 279, 5-(3-(4-cyclopropyl-2-pyrimidinyl)-6-fluoro-1H-indol-5-yl)-N-(1-methylethyl)-1,3,4-oxadiazol-2-amine] | – | – | – | 0.746 | 1.88 | 2.38 | – | – | –
CC(C)Nc1nnc(-c2cc3c(-c4cncc(C5CC5)n4)c[nH]c3cc2F)o1 [Example 280, 5-(3-(6-cyclopropyl-2-pyrazinyl)-6-fluoro-1H-indol-5-yl)-N-(1-methylethyl)-1,3,4-oxadiazol] | – | – | – | 3.83 | 8.04 | – | – | – | IC50 [4]: 4.71 nM
CC(C)Nc1nnc(-c2ccc3[nH]cc(-c4ncc(C(N)=O)c(C5CC5)n4)c3c2)o1 [Example 281, 4-cyclopropyl-2-(5-(5-((1-methylethyl)amino)-1,3,4-oxadiazol-2-yl)-1H-indol-3-yl)-5-pyrimidinecarboxamide] | – | – | – | 1.28 | 2.15 | 1.19 | – | – | –
CC(C)Nc1nccc(-c2c[nH]c3ccc(-c4nnc(NC(C)C)o4)cc23)n1 [Example 287, N-isopropyl-5-(3-(2-(isopropylamino)pyrimidin-4-yl)-1H-indol-5-yl)-1,3,4-oxadiazol-2-amine] | – | – | – | – | – | 4.15 | – | – | IC50 (KMS-12-BM myeloma cells; read-out: KMS12_IC50 (uM)): 1.56 µM; IC50 [3]: 11.1 nM
CC(C)Nc1nc(-c2c[nH]c3ccc(-c4nnc(NC(C)C)o4)cc23)cc(=O)[nH]1 [Example 288, 2-(isopropylamino)-6-(5-(5-(isopropylamino)-1,3,4-oxadiazol-2-yl)-1H-indol-3-yl)pyrimidin-4(3H)-one] | – | – | – | 4.2 | 14.3 | 2.44 | – | – | –
CC(C)Nc1nnc(-c2ccc3[nH]cc(NC(=O)C4CC4)c3c2)o1 [Example 291, N-(5-(5-(isopropylamino)-1,3,4-oxadiazol-2-yl)-1H-indol-3-yl)cyclopropanecarboxamide] | – | – | – | 1.44 | 25.6 | 53.1 | – | – | –
CC(C)Nc1nnc(-c2ccc3[nH]cc(-c4cc(=O)[nH]c(C5CC5)n4)c3c2)o1 [Example 300, 2-cyclopropyl-6-(5-(5-((1-methylethyl)amino)-1,3,4-oxadiazol-2-yl)-1H-indol-3-yl)-4(3H)-pyrimidinone] | – | – | – | 1.44 | 2.24 | 1.2 | – | – | –

Second part, led by results:

IC50 ([3]; Pim-2 enzyme assay) [nM] | IC50 [4, 7] [nM] | IC50 [5] [nM] | IC50 (KMS-12-BM myeloma cells; read-out: KMS12_IC50) [µM] | IC50 [3, 8] [nM] | IC50 [4, 9] [nM] | SMILES | IC50 ([2]; U2OS cells, Pim-2 transfected) [nM] | IC50 ([1]; read-out: U2OS Pim1_Cell_IC50) [nM] | also measured
91.9 | 25.7 | 10.1 | – | – | – | CNc1nnc(-c2ccc3[nH]cc(-c4cccc(N5CCOCC5)n4)c3c2)s1 [Example 214, N-methyl-5-(3-(6-(4-morpholinyl)-2-pyridinyl)-1H-indol-5-yl)-1,3,4-thiadiazol-2-amine] | 15200 | – | IC50 [1, 6]: 587 nM
80.4 | 28.8 | 6.73 | – | – | – | CNc1nnc(-c2ccc3[nH]cc(-c4cccc(N5CCCC5=O)n4)c3c2)s1 [Example 229, 1-(6-(5-(5-(methylamino)-1,3,4-thiadiazol-2-yl)-1H-indol-3-yl)-2-pyridinyl)-2-pyrrolidinone] | > 31600 | 312 | –
63.1 | 30.9 | 7.13 | – | – | – | CCOc1cccc(-c2c[nH]c3ccc(-c4nnc(NC)s4)cc23)n1 [Example 230, 5-(3-(6-ethoxy-2-pyridinyl)-1H-indol-5-yl)-N-methyl-1,3,4-thiadiazol-2-amine] | > 31600 | 912 | –
137 | – | 9.89 | – | – | – | CNc1nnc(-c2ccc3[nH]cc(-c4cncc(N(C)C)n4)c3c2)s1 [Example 231, N,N-dimethyl-6-(5-(5-(methylamino)-1,3,4-thiadiazol-2-yl)-1H-indol-3-yl)-2-pyrazinamine] | – | 377 | IC50 ([2]; U2OS): > 31600 nM; IC50 [4]: 38.2 nM
782 | 228 | 62.8 | – | – | – | CNc1nnc(-c2ccc3[nH]cc(-c4ccccc4F)c3c2)s1 [Example 235, 5-(3-(2-fluorophenyl)-1H-indol-5-yl)-N-methyl-1,3,4-thiadiazol-2-amine] | > 31600 | 5390 | –
2820 | 223 | 85.2 | – | – | – | CSc1nnc(-c2ccc3[nH]cc(-c4cccc(N5CCOCC5)n4)c3c2)s1 [Example 243, 5-(5-(methylsulfanyl)-1,3,4-thiadiazol-2-yl)-3-(6-(4-morpholinyl)-2-pyridinyl)-1H-indole] | > 31600 | – | IC50 [1, 6]: 6330 nM
21.5 | 4.19 | 7.11 | – | – | – | c1cc2[nH]cc(-c3cncc(C4CC4)n3)c2cc1-c1nnc(N2CCNCC2)o1 [Example 246, 3-(6-cyclopropyl-2-pyrazinyl)-5-(5-(1-piperazinyl)-1,3,4-oxadiazol-2-yl)-1H-indole] | > 31600 | 450 | –
1.05 | 1.34 | 0.346 | – | – | – | c1cc2[nH]cc(-c3cncc(C4CC4)n3)c2cc1-c1nnc(NC2CNC2)o1 [Example 247, N-3-azetidinyl-5-(3-(6-cyclopropyl-2-pyrazinyl)-1H-indol-5-yl)-1,3,4-oxadiazol-2-amine] | > 31600 | 1940 | –
– | – | – | 0.945 | 4.65 | 2.54 | CC(C)Nc1nnc(-c2ccc3[nH]cc(-c4ccnc(C5CC5)n4)c3c2)o1 [Example 301, 5-(3-(2-cyclopropyl-4-pyrimidinyl)-1H-indol-5-yl)-N-(1-methylethyl)-1,3,4-oxadiazol-2-amine] | – | – | –
